Target: T1, recombinant human aromatase (CYP19) (Homo sapiens, UniProt P11511)
T1 construct: purchased GENTEST 456260; host or cells: baculovirus/insect cells
T1 sequence (P11511 1-503): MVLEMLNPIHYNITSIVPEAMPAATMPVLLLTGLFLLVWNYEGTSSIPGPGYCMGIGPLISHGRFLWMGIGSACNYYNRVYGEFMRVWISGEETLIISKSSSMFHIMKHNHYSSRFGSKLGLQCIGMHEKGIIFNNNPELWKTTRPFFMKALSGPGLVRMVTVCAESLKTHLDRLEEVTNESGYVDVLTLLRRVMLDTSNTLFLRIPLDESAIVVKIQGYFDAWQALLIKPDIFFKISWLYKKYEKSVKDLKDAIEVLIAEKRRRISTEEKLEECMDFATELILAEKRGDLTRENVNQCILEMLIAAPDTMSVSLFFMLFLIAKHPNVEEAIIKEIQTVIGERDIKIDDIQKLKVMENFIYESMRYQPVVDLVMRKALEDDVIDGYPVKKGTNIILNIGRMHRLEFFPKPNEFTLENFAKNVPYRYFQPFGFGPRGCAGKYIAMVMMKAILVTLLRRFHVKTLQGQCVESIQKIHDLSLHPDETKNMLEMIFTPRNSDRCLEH
Assay: aromatase (CYP19) inhibition assay, fluorometric substrate dibenzylfluorescein (DBF)
Assay type: biochemical
Conditions: recombinant human aromatase (baculovirus/insect cell expressed), test compounds 2×10^−5 to 10^−9 M, 37° C. for 30 minutes
Protocol: Compounds of the invention were evaluated for inhibiting aromatase enzyme using the following aromatase (CYP19) inhibition assay which detects aromatase inhibitors utilizing recombinant human aromatase (baculovirus/insect cell expressed) and the fluorometric substrate dibenzylfluorescein (DBF). Aromatase will metabolize DBF to fluorescein which will give the fluorescent signal. The assay is conducted in 96-well black, Falcon plate (BD Biosciences, Cat. No. 353241) in the total volume of 100 μL per well. 40 μL of the Cofactor/Dilution buffer (1) is added to the plate followed by 10 μL of serially diluted test compounds in duplicates for final concentration of 2×10^−5 to 10^−9 M, or 10 μL of phosphate buffer for positive and background control wells. After 10 minutes of preincubation at 37° C., the reaction is initiated by adding 50 μL of prewarmed Enzyme/Substrate Mix (2) to the test compound wells, and positive control wells (maximum activity of CYP19, which represents 100%). The plate is incubated at 37° C. for 30 minutes. To stop the reaction, 37.5 μL of 2 N NaOH is added to all wells. For background controls, 50 μL of Enzyme/Substrate Mix (2) are added into background control wells. The plate is left at 37° C. incubator for 2 hours to develop adequate signal to background ratio. Fluorescence per well is measured in the fluorescent plate reader. The metabolite concentration is measured using excitation wavelength of 485 nm and emission wavelength of 538 nm. Inhibition of aromatase by test compounds is expressed in percentage relative to positive controls. IC50 values for the test compounds are derived from non-liner curve fitting. • (1) Cofactor/Dilution buffer: 50 mM phosphate buffer, pH=7.4; 1× NADPH regenerating system A (20× stock, GENTEST, Cat. No. 451220); 1× NAPDH regenerating system B (100× stock, GENTEST, Cat. No. 451200) and 0.2 mg/mL control protein (Insect Cell Control Supersomes, GENTEST, Cat. No. 456200) • (2) Enzyme/Substrate Mix: 50 mM phosphate buffer, pH=7.4, 0.02 nmole/mL human aromatase protein (Human CYP19+P450 Reductase Supersomes, GENTEST, Cat. No. 456260); 0.4 μM dibenzylfluorescein (DBF, GENTEST, Cat. No. 451750, prepared at 2 mM concentration in acetonitrile); 0.5 mg/mL control protein (Insect Cell Control Supersomes, GENTEST, Cat. No. 456200).

aromatase inhibition | Compound
showed aromatase inhibition | Cc1ccc(F)cc1C(C)(C)CC(O)(Cc1cc2ccncc2[nH]1)C(C)C (centres unmarked) [5-(5-Fluoro-2-methylphenyl)-2,5-dimethyl-3-(1H-pyrrolo[2,3-c]pyridin-2-ylmethyl)hexan-3-ol]
showed aromatase inhibition | CC(C)(CC(O)(Cc1cc2cnccc2[nH]1)C(F)(F)F)c1ccc(F)cc1O (centres unmarked) [5-Fluoro-2-[4,4,4-trifluoro-3-hydroxy-1,1-dimethyl-3-(1H-pyrrolo[3,2-c]pyridin-2-ylmethyl)butyl]phenol]

Reference: patent US20060030608A1, “Anti aromatase compounds pharmaceutical compositions and uses thereof” (Boehringer Ingelheim Pharmaceuticals, Inc., priority 2004, published 2006)
